US20260364214A1, “MULTIVALENT FIBROBLAST ACTIVATION PROTEIN LIGANDS FOR TARGETED DELIVERY APPLICATIONS” (Philochem AG, priority 2022, published 2026)

Key:
SK-RC-52.hFAP cells = assay: Cell efflux assay with 177Lu-labeled ligands; format: cell-based
Protocol: SK-RC-52.hFAP cells, were cultured using RPMI medium supplemented with 10% Fetal Bovine Serum (FBS) and 1% Antibiotic-Antimytotic. Cells were seeded in 24-well plates (200'000 cells/well, 0.5 mL/well) and incubated overnight at 37 °C, 5% CO2. Then, media was removed, cells were washed with PBS (2×0.5 mL) and incubated with a solution of ^177Lu-ESV6, ^177Lu-Bi-ESV6, ^177Lu-Tri-ESV6 or ^177Lu-FAP-2286 (10 KBq, […], 0.5 mL). After 1 h, media was removed, and cells were washed with PBS (2×0.5 mL) and incubated with fresh RPMI medium without supplements. Fractions of the culture media were measured with a gamma counter (Packard Cobra) at different time-points. Percentage of compound bound was calculated as fraction of the total activity and corrected for the ^177Lu decay, as shown in FIG. 3.

SK-RC-52.hFAP tumors [1] = assay: Therapeutic efficacy, schedule optimization for combination with L19-IL2; format: in vivo, mouse (athymic Balb/c AnNRj-Foxn1); conditions: 5 MBq/mouse on day 7
Protocol: The anti-cancer efficacy was assessed in athymic Balb/c AnNRj-Foxn1 mice bearing SK-RC-52.hFAP tumor in the right flank. Therapy experiments started when the average volume of established tumors had reached 100-150 mm^3. Body weight of the animals and tumor volume were daily measured and recorded. Tumor dimensions were measured with an electronic caliper and tumor volume was calculated with the formula (long side, mm)×(short side, mm)×(short side, mm)×0.5. Animals were euthanized when one or more termination criterium indicated by the experimental license was reached. Prism 7 software (GraphPad Software) was used for data analysis. Different groups were treated with (i) L19-IL2 as single agent at a dose of 0.05 mg/mouse on day 8,10 and 12, (ii) ^177Lu-Tri-ESV6 as single agent at a dose of 5 MBq/mouse on day 7 (iii) ^177Lu-Tri-ESV6+L19-IL2 combination (^177Lu-Tri-ESV6 at a dose of 5 MBq/mouse on day 7 followed by three administrations of L19-IL2 at a dose 0.05 mg/mouse on day 8, 10 and 12—SCHEDULE 1—, or by three administrations of L19-IL2 at a dose 0.05 mg/mouse on day 12, 17 and 22—SCHEDULE 2—, or by a single administration of L19-IL2 at a dose 0.05 mg/mouse on day 8—SCHEDULE 3—, or by a single administration of L19-IL2 at a dose 0.05 mg/mouse on day 12—SCHEDULE 4—or (iv) saline […].

[2] = Tolerability (body weight change) of 177Lu conjugates; format: in vivo, mouse (athymic Balb/c AnNRj-Foxn1); conditions: single administration, 250 nmol/kg, 250 MBq/kg
Protocol: (§1) The anti-cancer efficacy of ^177Lu-ESV6, ^177Lu-Bi-ESV6 and ^177Lu-Tri-ESV6 was assessed in athymic Balb/c AnNRj-Foxn1 mice bearing SK-RC-52.hFAP tumor in the right flank. ^177Lu-ESV6, ^177Lu-Bi-ESV6 or ^177Lu-Tri-ESV6 were intravenously administered at a dose of 250 nmol/kg, 250 MBq/kg (single administration on day 9 after tumor implantation). Therapy experiments started when the average volume of established tumors had reached 100-150 mm^3. Body weight of the animals and tumor volume were daily measured and recorded. Tumor dimensions were measured with an electronic caliper and tumor volume was calculated with the formula (long side, mm)×(short side, mm)×(short side, mm)×0.5. Animals were euthanized when one or more termination criterium indicated by the experimental license was reached. Prism 7 software (GraphPad Software) was used for data analysis.

SK-RC-52.hFAP tumors [3] = assay: Therapeutic efficacy in SK-RC-52.hFAP tumor bearing mice; format: in vivo, mouse (athymic Balb/c AnNRj-Foxn1); conditions: single administration, 250 nmol/kg, 250 MBq/kg
Protocol: SK-RC-52.hFAP were grown to 80% confluence in RPMI-1640 with 10% fetal bovine serum (FBS) and 1% antibiotic-antimycotic and detached with Trypsin-EDTA (ethylenediaminetetraacetic acid) 0.05%. Tumor cells were resuspended in Hanks' Balanced Salt Solution medium. Aliquots of 5 million cells (100 μL of suspension) were injected subcutaneously in the right flank of female athymic Balb/c AnNRj-Foxn1 mice (6 to 8 wk of age).
Prior to the therapy studies, precursors (25 nmol) were dissolved in 25 μL of milliQ water, then sodium acetate buffer (75 μL, 1 M in water) and 25, 75 or 150 MBq of ^177Lu solution were added. The mixture was heated at 90 °C for 1 minutes followed by dilution with 400 μL of PBS to afford a final volume of 500 μL (5 doses of 100 μL each). […]
as §1, with “Therapy experiments started when the average volume of established tumors had reached 100-150 mm^3.” left out, “Animals were euthanized when one or more termination criterium indicated by the experimental license was reached. Prism 7 software (GraphPad Software) was used for data analysis.” left out

Compound: N#CC1CC(F)(F)CN1C(=O)CNC(=O)c1ccnc2c(NC(=O)CCC(=O)NCCNC(=O)CCOCC(COCCC(=O)NCCNC(=O)CCC(=O)Nc3cccc4c(C(=O)NCC(=O)N5CC(F)(F)CC5C#N)ccnc34)(COCCC(=O)NCCNC(=O)CCC(=O)Nc3cccc4c(C(=O)NCC(=O)N5CC(F)(F)CC5C#N)ccnc34)NC(=O)CCC(C(=O)O)N3CCN(CC(=O)[O-])CCN(CC(=O)[O-])CCN(CC(=O)[O-])CC3)cccc12.[177Lu+3] (stereo not drawn) [^177Lu-Tri-ESV6-DOTAGA]
- residence time / efflux, in words (SK-RC-52.hFAP cells): longer residence time in FAP-positive tumor cells, followed by ^177Lu-Bi-ESV6, ^177Lu-ESV6 and ^177Lu-FAP2286
- therapeutic activity, in words (SK-RC-52.hFAP tumors [1]): dose-dependent therapeutic activity
- tolerability (body weight change), in words [2]: very well tolerated

Compound: N#C[C@@H]1CC(F)(F)CN1C(=O)CNC(=O)c1ccnc2c(NC(=O)CCC(=O)NCCNC(=O)CCC(C(=O)O)N3CCN(CC(=O)[O-])CCN(CC(=O)[O-])CCN(CC(=O)[O-])CC3)cccc12.[177Lu+3] (stereo partly drawn) [^177Lu-ESV6-DOTAGA, reference compound]
- tolerability (body weight change), in words [2]: very well tolerated

Compound: N#CC1CC(F)(F)CN1C(=O)CNC(=O)c1ccnc2c(NC(=O)CCC(=O)NCCCCC(NC(=O)CCC(=O)Nc3cccc4c(C(=O)NCC(=O)N5CC(F)(F)CC5C#N)ccnc34)C(=O)NCCNC(=O)CCC(C(=O)O)N3CCN(CC(=O)[O-])CCN(CC(=O)[O-])CCN(CC(=O)[O-])CC3)cccc12.[177Lu+3] (stereo not drawn) [^177Lu-Bi-ESV6-DOTAGA, reference compound]
- tolerability (body weight change), in words [2]: very well tolerated

Compound: N#C[C@@H]1CC(F)(F)CN1C(=O)CNC(=O)c1ccnc2c(NC(=O)CCC(=O)NCCNC(=O)CCOCC(COCCC(=O)NCCNC(=O)CCC(=O)Nc3cccc4c(C(=O)NCC(=O)N5CC(F)(F)C[C@H]5C#N)ccnc34)(COCCC(=O)NCCNC(=O)CCC(=O)Nc3cccc4c(C(=O)NCC(=O)N5CC(F)(F)C[C@H]5C#N)ccnc34)NC(=O)CCC(C(=O)O)N3CCN(CC(=O)O)CCN(CC(=O)O)CCN(CC(=O)O)CC3)cccc12 (stereo partly drawn) [Tri-ESV6-DOTAGA, 2,2′,2″-(10-(19-carboxy-1-((4-((2-((S)-2-cyano-4,4-difluoropyrrolidin-1-yl)-2-oxoethyl)carbamoyl)quinolin-8-yl)amino)-14,14-bis((3-((2-(4-((4-((2-((S)-2-cyano-4,4-difluoropyrrolidin-1-yl)-2-oxoethyl)carbamoyl)quinolin-8-yl)amino)-4-oxobutanamido)ethyl)amino)-3-oxopropoxy)methyl)-1,4,9,16-tetraoxo-12-oxa-5,8,15-triazanonadecan-19-yl)-1,4,7,10-tetraazacyclododecane-1,4,7-triyl)triacetic acid]
- therapeutic activity (tumor volume), in words (SK-RC-52.hFAP tumors [3]): remarkable therapeutic activity
